Measured values from ChEMBL document CHEMBL3526039, “Electrophysiological characterization of the polyspecific organic cation transporter plasma membrane monoamine transporter” (Drug Metab Dispos, 2012).

Experiments:
[1] = target: T1, Equilibrative nucleoside transporter 4 (Homo sapiens, UniProt Q7RTT9); experiment: Induction of human PMAT activity expressed in Xenopus laevis oocytes assessed as induction of inward current at 2.5 mM in NaCl buffer at pH 6 by two-microelectrode voltage-clamp method; type: cell-based; settings: pH 6, 2500 µM
T1 sequence (Q7RTT9 whole entry): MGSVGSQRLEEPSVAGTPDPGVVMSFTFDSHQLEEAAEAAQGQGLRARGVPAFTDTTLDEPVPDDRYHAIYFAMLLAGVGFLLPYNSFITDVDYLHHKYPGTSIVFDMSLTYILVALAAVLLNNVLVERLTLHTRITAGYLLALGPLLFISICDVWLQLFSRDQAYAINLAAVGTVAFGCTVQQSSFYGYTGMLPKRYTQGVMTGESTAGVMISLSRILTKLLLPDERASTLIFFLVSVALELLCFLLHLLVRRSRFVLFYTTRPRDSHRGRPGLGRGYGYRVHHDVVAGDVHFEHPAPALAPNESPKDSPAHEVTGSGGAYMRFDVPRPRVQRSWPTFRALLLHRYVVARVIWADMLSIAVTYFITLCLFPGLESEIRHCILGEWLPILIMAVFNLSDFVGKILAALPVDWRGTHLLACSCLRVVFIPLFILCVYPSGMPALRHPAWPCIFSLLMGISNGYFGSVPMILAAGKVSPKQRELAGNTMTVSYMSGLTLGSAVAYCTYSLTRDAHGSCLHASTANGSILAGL

[2] = target: T1, Equilibrative nucleoside transporter 4; experiment: Induction of human PMAT activity expressed in Xenopus laevis oocytes assessed as induction of inward current at 2.5 mM in NaCl buffer at pH 7.5 by two-microelectrode voltage-clamp method; type: cell-based; settings: pH 7.5, 2500 µM
[3] = target: T2, PMAT (equilibrative nucleoside transporter 4) (Homo sapiens, UniProt Q7RTT9); experiment: Increase of human PMAT-mediated drug uptake expressed in Xenopus laevis oocytes in NaCl buffer at pH 6 at 100 uM after 60 mins relative to control; settings: Xenopus laevis oocytes expressing human PMAT
T2 sequence (Q7RTT9 whole entry): T1 sequence (Q7RTT9 whole entry)

[4] = target: T2, PMAT (equilibrative nucleoside transporter 4); experiment: in vitro; settings: not told, pH 6
[5] = target: T2, PMAT (equilibrative nucleoside transporter 4); experiment: in vitro; settings: not told, pH 6; remark: listed apart in the source

Row | SMILES | Activity [1] [nanoampere] | Activity [2] [nanoampere] | uptake ratio at 1 h, 100 µM [3] | Km [4] [mM] | Km [5] [mM]
1 | CN1CC=C(c2ccccc2)CC1 | -62.7 | -5.67 | – | – | –
2 | NC12CC3CC(CC(C3)C1)C2 [AMANTADINE] | -21.2 | -7.26 | – | – | –
3 | NCCc1c[nH]cn1 [HISTAMINE] | -110 | -30.5 | 2 | 10 | 10
4 | CN(C)C(=N)N=C(N)N [METFORMIN] | -38 | -2.02 | – | – | –
5 | CN1CCC[C@H]1c1cccnc1 [NICOTINE] | -75.7 | -6.3 | – | – | –
6 | CC[N+](CC)(CC)CC [TETRYLAMMONIUM] | -11.7 | -0.627 | – | – | –
